Measurements as given in patent US10030020B2, “Spirocycle compounds and methods of making and using same” (Abide Therapeutics, Inc., priority 2016, dated 2018).
pIC50: −log10 of the molar value. Where two headings read alike, the source gives them in different places.

Key:
Format in all cases: biochemical
MAGL [1] = molecular target: MAGL (Mus musculus (Mouse), UniProt O35678); test: In vitro competitive activity-based protein profiling (mouse brain membrane fraction or cell lysates), MAGL band; conditions: for inhibition at 1 µM: read-out: MAGL % Inh 1 μM (mouse); for pIC50: competitive ABPP
Description: In Vitro Competitive Activity-Based Protein Profiling.
Proteomes (mouse brain membrane fraction or cell lysates) (50 μL, 1.0 mg/mL total protein concentration) were preincubated with varying concentrations of inhibitors at 37° C. After 30 min, FP—Rh (1.0 μL, 50 μM in DMSO) was added and the mixture was incubated for another 30 min at 37° C. Reactions were quenched with SDS loading buffer (50 μL-4×) and run on SDS-PAGE.

FAAH = FAAH (Mus musculus (Mouse), UniProt O08914); test: In vitro competitive activity-based protein profiling (mouse brain membrane fraction or cell lysates), FAAH band; conditions: for inhibition at 1 µM: read-out: FAAH % Inh 1 μM (mouse); for pIC50: competitive ABPP
Procedure, shortened: (§1)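 Competitive ABPP: proteome 1.0 mg/mL protein + inhibitor, 30 min, 37° C; FP-Rh probe (stock 50 μM in DMSO) added, 30 min, 37° C; SDS quench, SDS-PAGE, fluorescent band intensity read.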

MAGL [2] = molecular target: MAGL (Homo sapiens (Human), UniProt Q99685); test: In vitro competitive activity-based protein profiling (human prefrontal cortex or cell membrane fractions; hMAGL expressed in HEK293T cells)
Description: In Vitro Competitive Activity-Based Protein Profiling (Human).
Proteomes (human prefrontal cortex or cell membrane fractions) (50 μL, 1.0-2.0 mg/mL total protein concentration) were preincubated with varying concentrations of inhibitors at 37° C. After 30 min, FP—Rh or JW912 (1.0 μL, 50 μM in DMSO) was added and the mixture was incubated for another 30 min at room temperature. Reactions were quenched with SDS loading buffer (15 μL-4×) and run on SDS-PAGE.
Recombinant Expression of Human MAGL in HEK293T Cells.
Cell lysates were diluted with mock proteomes for use in competitive ABPP experiments.

ABHD6 = ABHD6 (Mus musculus (Mouse), UniProt Q8R2Y0); test: In vitro competitive activity-based protein profiling (mouse brain membrane fraction or cell lysates), ABHD6 band; conditions: for inhibition at 1 µM: read-out: ABHD6 % Inh 1 μM (mouse); for pIC50: competitive ABPP
Procedure, shortened: as §1

[3] = human proteome, competitive ABPP

Sequence of FAAH (O08914 whole entry): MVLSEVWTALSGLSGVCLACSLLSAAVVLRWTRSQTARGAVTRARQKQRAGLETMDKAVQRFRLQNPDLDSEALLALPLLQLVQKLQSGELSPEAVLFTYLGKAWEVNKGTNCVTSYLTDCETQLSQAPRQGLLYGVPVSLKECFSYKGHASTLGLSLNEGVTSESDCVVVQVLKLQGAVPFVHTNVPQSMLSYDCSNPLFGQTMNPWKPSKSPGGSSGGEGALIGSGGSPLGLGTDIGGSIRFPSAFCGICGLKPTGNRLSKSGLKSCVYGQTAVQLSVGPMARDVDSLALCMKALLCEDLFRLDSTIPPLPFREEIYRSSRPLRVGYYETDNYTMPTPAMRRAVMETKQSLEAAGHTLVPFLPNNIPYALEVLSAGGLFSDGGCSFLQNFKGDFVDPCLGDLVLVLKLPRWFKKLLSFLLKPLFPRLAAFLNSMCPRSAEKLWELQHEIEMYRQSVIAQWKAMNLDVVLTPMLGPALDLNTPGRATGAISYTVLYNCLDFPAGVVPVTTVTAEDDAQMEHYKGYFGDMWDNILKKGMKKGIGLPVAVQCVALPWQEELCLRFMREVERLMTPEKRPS
Sequence of ABHD6 (Q8R2Y0 whole entry): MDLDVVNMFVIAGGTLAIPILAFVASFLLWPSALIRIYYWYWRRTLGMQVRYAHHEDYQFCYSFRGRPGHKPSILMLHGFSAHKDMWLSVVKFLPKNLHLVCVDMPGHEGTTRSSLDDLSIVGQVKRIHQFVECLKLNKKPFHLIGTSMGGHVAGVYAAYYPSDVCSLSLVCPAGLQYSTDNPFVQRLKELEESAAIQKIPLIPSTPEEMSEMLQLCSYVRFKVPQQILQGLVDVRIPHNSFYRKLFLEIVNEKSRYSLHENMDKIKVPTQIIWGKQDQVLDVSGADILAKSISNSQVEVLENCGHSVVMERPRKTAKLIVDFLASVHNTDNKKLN
Sequence of MAGL (Mus musculus (Mouse), UniProt O35678) (O35678 whole entry): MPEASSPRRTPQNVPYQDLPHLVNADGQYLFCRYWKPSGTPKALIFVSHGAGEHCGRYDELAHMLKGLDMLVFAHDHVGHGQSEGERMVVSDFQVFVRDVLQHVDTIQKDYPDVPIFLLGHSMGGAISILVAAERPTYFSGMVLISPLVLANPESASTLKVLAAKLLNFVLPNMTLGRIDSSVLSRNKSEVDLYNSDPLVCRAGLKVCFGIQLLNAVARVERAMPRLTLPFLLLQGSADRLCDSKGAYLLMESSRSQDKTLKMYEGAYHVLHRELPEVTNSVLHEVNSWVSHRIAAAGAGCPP
Sequence of MAGL (Homo sapiens (Human), UniProt Q99685) (Q99685 whole entry): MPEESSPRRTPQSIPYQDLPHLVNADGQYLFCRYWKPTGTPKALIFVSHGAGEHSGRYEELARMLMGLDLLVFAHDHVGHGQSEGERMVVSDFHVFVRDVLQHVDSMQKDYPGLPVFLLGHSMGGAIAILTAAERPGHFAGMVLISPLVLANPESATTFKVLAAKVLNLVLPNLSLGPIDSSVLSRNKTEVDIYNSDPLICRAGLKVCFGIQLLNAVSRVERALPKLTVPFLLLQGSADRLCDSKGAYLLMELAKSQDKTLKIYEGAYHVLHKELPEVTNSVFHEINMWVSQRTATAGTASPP

| Compound | inhibition at 1 µM (MAGL [1]; 1 μM, mouse proteome) | inhibition at 1 µM (FAAH; 1 μM, mouse proteome) | pIC50 (MAGL [2]; [3]) | inhibition at 1 µM (ABHD6; mouse proteome) | pIC50 (MAGL [2]; human) | inhibition at 1 µM (ABHD6; mouse) | inhibition at 1 µM (MAGL [1]; 1 μM, mouse) | inhibition at 1 µM (FAAH; 1 μM, mouse) | other results |
| --- | --- | --- | --- | --- | --- | --- | --- | --- | --- |
| COC(=O)C1CCN(c2cc(C(F)(F)F)ccc2CN2CC3(CCN(C(=O)OC(C(F)(F)F)C(F)(F)F)CC3)CC2(C)C)CC1 [Example 53, 1,1,1,3,3,3-Hexafluoropropan-2-yl 2-(2-(4-(methoxycarbonyl)piperidin-1-yl)-4-(trifluoromethyl)benzyl)-3,3-dimethyl-2,8-diazaspiro[4.5]decane-8-carboxylate] | > 75% | < 25% | > 7.00 | < 25% | – | – | – | – | pIC50 (MAGL [1]; mouse proteome): 6.00 to 7.00; pIC50 (FAAH; mouse proteome): < 6.00; pIC50 (ABHD6; mouse proteome): < 6.00 |
| NC(=O)c1cc(CN2CCCC23CCN(C(=O)OC(C(F)(F)F)C(F)(F)F)CC3)ccc1C(F)(F)F [Example 178, 1,1,1,3,3,3-hexafluoropropan-2-yl 1-(3-carbamoyl-4-(trifluoromethyl)benzyl)-1,8-diazaspiro[4.5]decane-8-carboxylate] | > 75% | < 25% | > 7.00 | 25 to 75% | – | – | – | – | pIC50 (MAGL [1]; mouse proteome): > 7.00; pIC50 (FAAH; mouse proteome): < 6.00; pIC50 (ABHD6; mouse proteome): < 6.00 |
| C#Cc1ccc(CN2CCCC23CCN(C(=O)OC(C(F)(F)F)C(F)(F)F)CC3)c(N2CCC(C(=O)O)CC2)c1 [Example 198, 1-{5-Ethynyl-2-[(8-{[(1,1,1,3,3,3-hexafluoropropan-2-yl)oxy]carbonyl}-1,8-diazaspiro[4.5]decan-1-yl)methyl]phenyl}piperidine-4-carboxylic acid] | > 75% | < 25% | > 7.00 | < 25% | – | – | – | – | – |
| O=C(O)C1CCN(c2cc(C(F)(F)F)ccc2CN2CCC3(CCN(C(=O)OC(C(F)(F)F)C(F)(F)F)CC3)C2)C1 (stereo not shown) [Example 201] | > 75% | < 25% | > 7.00 | ≥ 75% | – | – | – | – | – |
| O=C(O)C1CCN(c2cc(CN3CCC4(CCN(C(=O)OC(C(F)(F)F)C(F)(F)F)CC4)C3)cc(C(F)(F)F)c2)C1 (stereo not shown) [Example 202] | > 75% | < 25% | > 7.00 | ≥ 75% | – | – | – | – | – |
| O=C(O)C1CCN(c2cc(CN3CCCC34CCN(C(=O)OC(C(F)(F)F)C(F)(F)F)CC4)cc(C(F)(F)F)c2)C1 (stereo not shown) [Example 203] | > 75% | < 25% | > 7.00 | < 25% | – | – | – | – | – |
| O=C(O)C1CN(c2cc(CN3CCCC34CCN(C(=O)OC(C(F)(F)F)C(F)(F)F)CC4)cc(C(F)(F)F)c2)CCO1 (stereo not shown) [Example 204] | > 75% | < 25% | > 7.00 | < 25% | – | – | – | – | – |
| O=C(OC(C(F)(F)F)C(F)(F)F)N1CCC2(CCCN2Cc2cc(-c3nnn[nH]3)cc(C(F)(F)F)c2)CC1 [Example 205] | > 75% | < 25% | > 7.00 | 25 to 75% | – | – | – | – | – |
| O=C(O)c1cc(CN2CCCC23CCN(C(=O)OC(C(F)(F)F)C(F)(F)F)CC3)cc(C(F)(F)F)c1 [Example 206] | > 75% | < 25% | > 7.00 | 25 to 75% | – | – | – | – | – |
| O=C(O)C1CN(c2cc(C(F)(F)F)ccc2CN2CCC3(CCN(C(=O)OC(C(F)(F)F)C(F)(F)F)CC3)C2)CCO1 (stereo not shown) [Example 209] | > 75% | < 25% | > 7.00 | 25 to 75% | – | – | – | – | – |
| O=C(O)[C@H]1CCCN(c2cc(C(F)(F)F)ccc2CN2CCC3(CCN(C(=O)OC(C(F)(F)F)C(F)(F)F)CC3)C2)C1 [Example 215] | > 75% | < 25% | > 7.00 | ≥ 75% | – | – | – | – | – |
| CC1(C(=O)O)CCN(c2cc(C(F)(F)F)ccc2CN2CCC3(CCN(C(=O)OC(C(F)(F)F)C(F)(F)F)CC3)C2)C1 (stereo not shown) [Example 219] | > 75% | < 25% | > 7.00 | ≥ 75% | – | – | – | – | – |
| O=C(O)[C@@H]1CCCN(c2cc(CN3CCC4(CCN(C(=O)OC(C(F)(F)F)C(F)(F)F)CC4)C3)cc(C(F)(F)F)c2)C1 [Example 222] | – | – | – | – | > 7.00 | < 25% | – | – | MAGL % Inh 1 μM (mouse) (MAGL [1]; 1 μM, mouse): ### (### is ≥75%); FAAH % Inh 1 μM (mouse) (FAAH; 1 μM, mouse): # (# is <25%) |
| CC1(C(=O)O)CCCN(c2cc(CN3CCC4(CCN(C(=O)OC(C(F)(F)F)C(F)(F)F)CC4)C3)cc(C(F)(F)F)c2)C1 (stereo not shown) [Example 223] | – | – | – | – | > 7.00 | < 25% | > 75% | < 25% | – |
| O=C(O)C1CCCCN1c1cc(CN2CCC3(CCN(C(=O)OC(C(F)(F)F)C(F)(F)F)CC3)C2)cc(C(F)(F)F)c1 (stereo not shown) [Example 225] | – | – | – | – | > 7.00 | < 25% | > 75% | < 25% | – |
| O=C(O)C1CCN(c2ccc(CN3CCC4(CCN(C(=O)OC(C(F)(F)F)C(F)(F)F)CC4)C3)cc2C(F)(F)F)CC1 [Example 228] | – | – | – | – | > 7.00 | ≥ 75% | > 75% | < 25% | – |

| Compound | inhibition at 1 µM (MAGL [1]; 1 μM, mouse proteome) | inhibition at 1 µM (FAAH; 1 μM, mouse proteome) | pIC50 (MAGL [2]; [3]) | inhibition at 1 µM (ABHD6; mouse proteome) | pIC50 (MAGL [2]; human) | inhibition at 1 µM (ABHD6; mouse) | inhibition at 1 µM (MAGL [1]; 1 μM, mouse) | inhibition at 1 µM (FAAH; 1 μM, mouse) | other results |
| --- | --- | --- | --- | --- | --- | --- | --- | --- | --- |
| CC1(C(=O)O)CCN(c2cc(CN3CCC4(CCN(C(=O)OC(C(F)(F)F)C(F)(F)F)CC4)C3)cc(C(F)(F)F)c2)C1 (stereo not shown) [Example 229] | – | – | – | – | > 7.00 | ≥ 75% | > 75% | < 25% | – |
| O=C(O)C1CCN(c2cc(Cl)cc(CN3CCC4(CCN(C(=O)OC(C(F)(F)F)C(F)(F)F)CC4)C3)c2)CC1 [Example 232] | – | – | – | – | > 7.00 | 25 to 75% | > 75% | < 25% | – |
| O=C(O)C1CCN(c2cc(F)cc(CN3CCC4(CCN(C(=O)OC(C(F)(F)F)C(F)(F)F)CC4)C3)c2)CC1 [Example 233] | – | – | – | – | > 7.00 | 25 to 75% | > 75% | < 25% | – |
| O=C(O)C1CCN(c2cc(CN3CCC4(CCN(C(=O)OC(C(F)(F)F)C(F)(F)F)CC4)C3)ccc2C(F)(F)F)CC1 [Example 234] | – | – | – | – | > 7.00 | ≥ 75% | > 75% | < 25% | – |
| O=C(O)C1CCN(Cc2cc(C(F)(F)F)ccc2CN2CCC3(CCN(C(=O)OC(C(F)(F)F)C(F)(F)F)CC3)C2)CC1 [Example 239] | – | – | – | – | > 7.00 | < 25% | > 75% | < 25% | – |
| O=C(O)C1CCN(c2cc(S(F)(F)(F)(F)F)ccc2CN2CCC3(CCN(C(=O)OC(C(F)(F)F)C(F)(F)F)CC3)C2)CC1 [Example 241] | – | – | – | – | > 7.00 | ≥ 75% | > 75% | < 25% | – |
| O=C(O)C1CCN(Cc2cc(CN3CCC4(CCN(C(=O)OC(C(F)(F)F)C(F)(F)F)CC4)C3)cc(C(F)(F)F)c2)CC1 [Example 245] | – | – | – | – | > 7.00 | ≥ 75% | > 75% | < 25% | – |
| O=C(O)C1CCN(Cc2ccc(CN3CCC4(CCN(C(=O)OC(C(F)(F)F)C(F)(F)F)CC4)C3)cc2C(F)(F)F)CC1 [Example 247] | – | – | – | – | > 7.00 | ≥ 75% | > 75% | < 25% | – |
| CC1(C(=O)O)CN(c2cc(CN3CCC4(CCN(C(=O)OC(C(F)(F)F)C(F)(F)F)CC4)C3)cc(C(F)(F)F)c2)CCO1 (stereo not shown) [Example 252] | – | – | – | – | > 7.00 | ≥ 75% | > 75% | < 25% | – |
| O=C(O)c1ccc(CN2CCC3(CCN(C(=O)OC(C(F)(F)F)C(F)(F)F)CC3)C2)cc1C(F)(F)F [Example 258] | – | – | – | – | < 6.00 | ≥ 75% | > 75% | < 25% | – |
| O=C(O)c1cc(C(F)(F)F)ccc1CN1CCCC12CCN(C(=O)OC(C(F)(F)F)C(F)(F)F)CC2 [Example 261] | – | – | – | – | > 7.00 | < 25% | 25 to 75% | < 25% | – |
| O=C(O)C1CCN(c2cc(CN3CCCC34CCN(C(=O)OC(C(F)(F)F)C(F)(F)F)CC4)cc(S(F)(F)(F)(F)F)c2)CC1 [Example 263] | – | – | – | – | > 7.00 | 25 to 75% | > 75% | < 25% | – |
| O=C(O)C1CCN(c2cc(CN3CCC4(CCN(C(=O)OC(C(F)(F)F)C(F)(F)F)CC4)C3)cc(S(F)(F)(F)(F)F)c2)CC1 [Example 264] | – | – | – | – | > 7.00 | ≥ 75% | > 75% | < 25% | – |
| O=C(O)c1ccc(CN2CCCC23CCN(C(=O)OC(C(F)(F)F)C(F)(F)F)CC3)c(C(F)(F)F)c1 [Example 265] | – | – | – | – | > 7.00 | ≥ 75% | > 75% | < 25% | – |
| NC(=O)C1CCN(C(=O)c2cc(C(F)(F)F)ccc2CN2CCCC23CCN(C(=O)OC(C(F)(F)F)C(F)(F)F)CC3)CC1 [Example 276] | – | – | – | – | > 7.00 | 25 to 75% | > 75% | < 25% | – |
